Data published in US20040234463A1, “Antimicrobial solution for both tropical and oral use” (Innovative Healthcare Products, Inc., priority 2002, published 2004).

Columns and labels:
Experiment in all cases: Titration of zones of inhibition of growth
Format in all cases: cell-based
Parameters in all cases: key: NI: No inhibition detected
Staphylococcus aureus = tested on: Staphylococcus aureus
Description: (§1) The present invention was tested against a commercially available denture cleanser and a 3% solution of H2O2 to test its effectiveness to inhibit growth of ten various target microorganisms commonly found in the human mouth. Included among the microorganisms were candida albicans, staphylococcus aureus, streptococcus sanguia, and fusobacterium nucleatum. Three samples of each microorganism were prepared for introduction of one of the various treatments—either, the present invention, a commercially-available denture cleanser, or a 3% solution of H2O2. The table blow partailly summarizes the results in terms of the titration of zones (in millimeters) of inhibition of growth.

Fusobacterium nucleatum = tested on: Fusobacterium nucleatum
Description: as §1

Candida albicans = tested on: Candida albicans
Description: as §1

Streptococcus sanguia = tested on: Streptococcus sanguia
Description: as §1

## OO [H2O2]
Staphylococcus aureus; dilution 1/16
  zone of inhibition of growth: NI
Staphylococcus aureus; dilution 1/32
  zone of inhibition of growth: NI
Staphylococcus aureus; dilution 1/64
  zone of inhibition of growth: NI
Staphylococcus aureus; dilution 1/128
  zone of inhibition of growth: NI
Staphylococcus aureus; dilution St.
  zone of inhibition of growth: 10.0 millimeters
Staphylococcus aureus; dilution ¼
  zone of inhibition of growth: NI
Staphylococcus aureus; dilution ½
  zone of inhibition of growth: 5.0 millimeters
Staphylococcus aureus; dilution ⅛
  zone of inhibition of growth: NI
Fusobacterium nucleatum; dilution 1/16
  zone of inhibition of growth: NI
Fusobacterium nucleatum; dilution 1/32
  zone of inhibition of growth: NI
Fusobacterium nucleatum; dilution 1/64
  zone of inhibition of growth: NI
Fusobacterium nucleatum; dilution 1/128
  zone of inhibition of growth: NI
Fusobacterium nucleatum; dilution St.
  zone of inhibition of growth: 17.0 millimeters
Fusobacterium nucleatum; dilution ¼
  zone of inhibition of growth: 7.0 millimeters
Fusobacterium nucleatum; dilution ½
  zone of inhibition of growth: 13.0 millimeters
Fusobacterium nucleatum; dilution ⅛
  zone of inhibition of growth: 6.0 millimeters
Candida albicans; dilution 1/16
  zone of inhibition of growth: NI
Candida albicans; dilution 1/32
  zone of inhibition of growth: NI
Candida albicans; dilution 1/64
  zone of inhibition of growth: NI
Candida albicans; dilution 1/128
  zone of inhibition of growth: NI
Candida albicans; dilution St.
  zone of inhibition of growth: 5.5 millimeters
Candida albicans; dilution ¼
  zone of inhibition of growth: NI
Candida albicans; dilution ½
  zone of inhibition of growth: 5.0 millimeters
Candida albicans; dilution ⅛
  zone of inhibition of growth: NI
Streptococcus sanguia; dilution 1/16
  zone of inhibition of growth: NI
Streptococcus sanguia; dilution 1/32
  zone of inhibition of growth: NI
Streptococcus sanguia; dilution 1/64
  zone of inhibition of growth: NI
Streptococcus sanguia; dilution 1/128
  zone of inhibition of growth: NI
Streptococcus sanguia; dilution St.
  zone of inhibition of growth: 10.0 millimeters
Streptococcus sanguia; dilution ¼
  zone of inhibition of growth: NI
Streptococcus sanguia; dilution ½
  zone of inhibition of growth: 6.5 millimeters
Streptococcus sanguia; dilution ⅛
  zone of inhibition of growth: NI
